Laboratory results published in patent EP3381898A1, “SYMMETRICAL TRIS-ARYL-AMIDE DERIVATIVES AND THEIR USE AS ANTI-HEPARANASE” (priority 2017, dated 2018).
pIC50: −log10 of the molar value. Where a name gives a salt, the structure may show the parent alone. Read-outs that look alike come from different tables or passages of the source.

Experiments:
[1] = test system: U87MG (human glioblastoma astrocytoma); test: Cell adhesion assay on matrigel coated wells; format: cell-based; conditions: percent of adhesion with respect to the control (100%)
Method: (§1) Cell surface, non-integrin molecules such as heparan sulfate proteoglycans (HSPGs) may be involved in the regulation of early adhesive stages of cell-ECM interactions. A cell adhesion assay has been employed to determine if the newly designed heparanase inhibitors were able to interfere with adhesion properties of cancer cells.
(§2) HT1080 (human fibrosarcoma) and U87MG (human glioblastoma astrocytoma) cells were treated for 18-20 h with test compounds in complete medium supplemented with 10% FCS. Then cells were collected, washed in complete medium, and added to matrigel coated wells in triplicate, at previously identified optimal seeding density, and incubated at 37 °C in complete medium for times ranging from 15 minutes to 4h, according to the cell line. After incubation, the wells were washed three times with serum-free medium and the remaining firmly attached cells were stained with crystal-violet 0.1%. Optical density was measured at 560 nm by Victor 3 (Perkin-Elmer) plate analyzer. Each experiment was repeated three times.
(§3) Table 3. […] In Invasion assay, data were expressed as the percent invasion (range) with respect to cell migration through uncoated insert membrane. In Adhesion assay, data were expressed as the percent of adhesion with respect to the control (100%).

[2] = test system: HT1080 (human fibrosarcoma); test: Cell adhesion assay on matrigel coated wells; format: cell-based; conditions: percent of adhesion with respect to the control (100%)
Method: as §1, §2, §3

[3] = test system: U2OS (human osteosarcoma); test: Matrigel cell invasion assay; format: cell-based; conditions: for inhibition at 2.5 µM: Homo sapiens, read-out: Invasion Assay Inhibition U2OS
Method: (§4) Heparanase inhibitors were then evaluated for their activity on the invasive potential of HT1080 (human fibrosarcoma), U87MG (human glioblastoma astrocytoma) and U2OS (human osteosarcoma) human cell lines, using the Matrigel cell invasion assay which allows to assess the cell invasion ability of malignant and normal cells.
(§5) Invasion assay was performed using BioCoat cell culture inserts (BioCoat 8.0µm PET Membrane 24 Well Permeable Supports, Corning). Filters were coated with 100 µl of 300 µg/ml Matrigel dissolved in coating buffer (0.01 M Tris pH 8.0, 0.7% NaCl) (Becton-Dickinson Sciences). DMEM (Dulbecco's Modified Eagle's Medium) containing 5% FBS was added to the lower chambers. Cells were pre-treated with heparanase inhibitors for 24 h, detached and added to the upper chambers in media containing the inhibitors. Cells were allowed to invade for 24 h at 37°C in a CO2 incubator and then unmigrated cells were removed from the upper chamber with a cotton swab. The invading cells were fixed, stained with 0.1% crystal violet for 10 min at room temperature, photographed and counted under inverted microscope.
(§6) Test compounds were analyzed at fixed concentration (2.5 µM) for several fields, in duplicates. Activity of test compounds was compared to the reference compound. Activity of most interesting compound was confirmed in a second cell invasion assay. Data were expressed as the percent invasion with respect to cell migration through uncoated insert membrane.
as §3

[4] = test system: U87MG (human glioblastoma astrocytoma); test: Matrigel cell invasion assay; format: cell-based; conditions: for inhibition at 2.5 µM: Homo sapiens, U-87 MG, read-out: Invasion Assay Inhibition U87MG
Method: as §4, §5, §6, §3

[5] = test system: HT1080 (human fibrosarcoma); test: Matrigel cell invasion assay; format: cell-based; conditions: for inhibition at 2.5 µM: HT-1080, read-out: Invasion Assay Inhibition HT1080
Method: as §4, §5, §6, §3

[6] = test system: U2OS (human osteosarcoma); test: SRB Cell Cytotoxicity Assay (cell proliferation, 72h); format: cell-based; conditions: read-out: Concentration (µM) of test compounds at which the cell growth is inhibited by 50 %. U2OS
Method: (§7) SRB Cell Cytotoxicity Assay is an assay based upon the quantitative staining of cellular proteins by sulforhodamine B (SRB). This assay can be used for high-throughput drug screening ([…], Nature Protocol. 2006, 1, 112). Sulforhodamine B is an anionic aminoxanthene dye that forms an electrostatic complex with the basic amino acid residues of proteins under moderately acid conditions, which provides a sensitive linear response. […] Inhibition of cell proliferation was then measured by the classical colorimetric SRB Cell Cytotoxicity assay. Absorbance was measured by spectrophotometer at a wavelength of 510 nm and cell proliferation was determined as percent with respect to control cells (cells treated with the vehicle alone). EC50 values were then determined by GraphPad Prism.

[7] = test system: U87MG (human glioblastoma astrocytoma); test: as above; format: cell-based; conditions: U-87 MG, read-out: Concentration (µM) of test compounds at which the cell growth is inhibited by 50 %. U87MG
Method: as §7

[8] = test system: HT1080 (human fibrosarcoma); test: as above; format: cell-based; conditions: read-out: Concentration (µM) of test compounds at which the cell growth is inhibited by 50 %. HT1080
Method: as §7

[9] = target: T1, heparanase (Homo sapiens, UniProt Q9Y251); test: AGA*IA assay: heparanase-catalyzed fondaparinux cleavage, colorimetric (WST-1); format: biochemical
T1 sequence (Q9Y251 158-543 limits assumed): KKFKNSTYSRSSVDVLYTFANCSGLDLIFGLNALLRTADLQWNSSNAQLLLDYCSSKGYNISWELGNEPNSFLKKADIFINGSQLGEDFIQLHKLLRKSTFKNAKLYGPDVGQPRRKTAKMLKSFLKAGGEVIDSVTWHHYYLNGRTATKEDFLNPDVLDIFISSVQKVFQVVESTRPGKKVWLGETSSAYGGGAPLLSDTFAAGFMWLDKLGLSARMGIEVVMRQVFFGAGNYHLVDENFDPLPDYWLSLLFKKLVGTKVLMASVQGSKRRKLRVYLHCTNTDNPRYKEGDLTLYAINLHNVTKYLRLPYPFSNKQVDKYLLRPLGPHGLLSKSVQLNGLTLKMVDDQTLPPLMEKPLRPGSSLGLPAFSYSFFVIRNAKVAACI
T1 sequence (Q9Y251 36-109 limits assumed): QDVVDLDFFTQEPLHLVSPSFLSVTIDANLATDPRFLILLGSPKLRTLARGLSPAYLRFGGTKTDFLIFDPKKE
Method: All compounds were tested in a simple, accurate and robust microplate assay based on the cleavage of the synthetic heparin fragment, the pentasaccharide Fondaparinux (AGA*IA). This assay was originally developed by Hammond and coworkers (Hammond E, Li CP, Ferro V. Development of a colorimetric assay for heparanase activity suitable for kinetic analysis and inhibitor screening. Anal. Biochem. 396(1), 112-116 (2010)), where Fondaparinux corresponds to the methyl glycoside of the antithrombin III (ATIII)-activating pentasaccharide sequence of heparin. Fondaparinux is cleaved by heparanase to generate a reducing disaccharide, which can be quantitatively measured via a colorimetric or a fluorescence assay, the last by the fluorescent sensor polymer-H [Schiemann S, Lühn S, Alban S. Development of both colorimetric and fluorescence heparinase activity assays using fondaparinux as substrate. Anal. Biochem. 427(1), 82-89 (2012)].
The assay measures the appearance of the disaccharide product of heparanase-catalyzed fondaparinux cleavage colorimetrically using the tetrazolium salt WST-1. Assay was essentially performed as described with minor modifications. Briefly, NUNC ELISA 96-well plates were pre-treated with a solution of 4% BSA (bovin serum albumin) in phosphate-buffered saline containing 0.05% Tween 20 (PBST), for 2 h at 37°C, then washed three times with PBST, dried by tapping on paper towel and stored at -20°C. Before use, once again, the plates were washed with PBST.
Assay was carried out with 100 µl/well of assay solution containing 40 mM sodium acetate buffer (pH 5.0), 100 µM fondaparinux, 2.5 nM heparanase and serial dilutions of test compounds (tested in triplicate). Plates were sealed with adhesive tape and incubated, in the dark, for 3 h at 37°C, followed by development with 1.69 mM of the tetrazolium salt WST-1 solution in 0.1 M NaOH, for 1 h at 60°C. Then, the absorbance at 560 nm was measured through a microplate reader (Victor 3, Perkin Elmer).
Finally, the measurements were corrected by subtracting both the reagent background and the inner absorbance value of test compound.

[10] = AGA*IA screening, read-out: anti-heparanase activity
[11] = Table 1, range activity classes, AGA*IA test on Fondaparinux, read-out: AGAIA assay IC50
[12] = Table 2, classes as in Table 1, read-out: AGA*IA assay

Structure (SMILES): Cn1cc(NC(=O)c2cccc(NC(=O)Nc3cccc(C(=O)Nc4cc(C(=O)Nc5cccc(CC(=O)NCC(=O)O)c5)n(C)c4)c3)c2)cc1C(=O)Nc1cccc(CC(=O)NCC(=O)O)c1 [Compound 12b, 2,2'-((2,2'-(((4,4'-((3,3'-(Carbonylbis(azanediyl))bis(benzoyl))bis(azanediyl))bis(1-methyl-1H-pyrrole-4,2-diyl-2-carbonyl))bis(azanediyl))bis(3,1-phenylene))bis(acetyl))bis(azanediyl))diacetic acid]
- Adhesion Assay (%) U87MG ([1]; 2.5 µM): 16.7%
- Adhesion Assay (%) HT1080 ([2]; 2.5 µM): 97.1%
- Invasion Assay Inhibition U2OS ([3]; 2.5 µM): -
- inhibition at 2.5 µM [4]: < 50%
- inhibition at 2.5 µM [5]: < 50%
- EC50 ([6]; 72 h): > 2.5 µM
- EC50 ([7]; 72 h): > 2.5 µM
- EC50 ([8]; HT-1080, 72 h): > 2.5 µM
- pIC50 [9, 10]: > 6.30
- pIC50 [9, 11]: 6.31 to 7.30
- pIC50 [9, 12]: 6.31 to 7.30

Structure (SMILES): Cn1cc(NC(=O)c2cc(NC(=O)Nc3cc(C(=O)Nc4cc(C(=O)Nc5cccc(CC(=O)NCC(=O)O)c5)n(C)c4)cc(C(F)(F)F)c3)cc(C(F)(F)F)c2)cc1C(=O)Nc1cccc(CC(=O)NCC(=O)O)c1 [Compound 13c, Disodium 2,2'-{carbonylbis[imino[5-(trifluoromethyl)-3,1-phenylene]carbonylimino(1-methyl-1H-pyrrole-4,2-diyl)carbonylimino-3,1-phenylene(1-oxoethane-2,1-diyl)imino]}diethanoate salt]
- Adhesion Assay (%) U87MG ([1]; 2.5 µM): 22.0%
- Adhesion Assay (%) HT1080 ([2]; 2.5 µM): 88.2%
- inhibition at 2.5 µM [3]: 50 to 90%
- inhibition at 2.5 µM [4]: < 50%
- inhibition at 2.5 µM [5]: < 50%
- EC50 ([6]; 72 h): > 2.5 µM
- EC50 ([7]; 72 h): > 2.5 µM
- EC50 ([8]; HT-1080, 72 h): > 2.5 µM
- pIC50 [9, 10]: > 6.30
- pIC50 [9, 11]: 6.31 to 7.30
- pIC50 [9, 12]: 6.31 to 7.30

Structure (SMILES): Cn1cc(NC(=O)Nc2cc(C(=O)Nc3cc(C(=O)Nc4cccc(CC(=O)N[C@@H](Cc5ccccc5)C(=O)O)c4)n(C)c3)n(C)c2)cc1C(=O)Nc1cc(C(=O)Nc2cccc(CC(=O)N[C@@H](Cc3ccccc3)C(=O)O)c2)n(C)c1 [Compound 17e, 2,2'-{carbonylbis[imino(1-methyl-1H-pyrrole-4,2-diyl)carbonylimino(1-methyl-1H-pyrrole-4,2-diyl)carbonylimino-3,1-phenylene(1-oxoethane-2,1-diyl)imino]}bis(3-phenylpropanoic acid)]
- Adhesion Assay (%) U87MG ([1]; 2.5 µM): 51.6%
- Adhesion Assay (%) HT1080 ([2]; 2.5 µM): 93.2%
- Invasion Assay Inhibition U2OS ([3]; 2.5 µM): -
- inhibition at 2.5 µM [4]: < 50%
- inhibition at 2.5 µM [5]: < 50%
- EC50 ([6]; 72 h): > 2.5 µM
- EC50 ([7]; 72 h): > 2.5 µM
- EC50 ([8]; HT-1080, 72 h): > 2.5 µM
- pIC50 [9, 11]: 6.00 to 6.30
- pIC50 [9, 12]: 6.00 to 6.30

Structure (SMILES): Cn1cc(NC(=O)Nc2cc(C(=O)Nc3cc(C(=O)Nc4cccc(CC(=O)NCC(=O)O)c4)n(C)c3)n(C)c2)cc1C(=O)Nc1cc(C(=O)Nc2cccc(CC(=O)NCC(=O)O)c2)n(C)c1 [Compound 18, Disodium 2,2'-{carbonylbis[imino(1-methyl-1H-pyrrole-4,2-diyl)carbonylimino(1-methyl-1H-pyrrole-4,2-diyl)carbonylimino-3,1-phenylene(1-oxoethane-2,1-diyl)imino]}diethanoate salt]
- Adhesion Assay (%) U87MG ([1]; 2.5 µM): 62.9%
- Adhesion Assay (%) HT1080 ([2]; 2.5 µM): 86.4%
- inhibition at 2.5 µM [3]: < 50%
- inhibition at 2.5 µM [4]: < 50%
- inhibition at 2.5 µM [5]: 50 to 90%
- EC50 ([6]; 72 h): > 2.5 µM
- EC50 ([7]; 72 h): > 2.5 µM
- EC50 ([8]; HT-1080, 72 h): > 2.5 µM
- pIC50 [9, 11]: 6.00 to 6.30
- pIC50 [9, 12]: 6.00 to 6.30

Structure (SMILES): Cc1ccc(C(=O)Nc2ccc(S(=O)(=O)O)c3cc(S(=O)(=O)O)cc(S(=O)(=O)O)c23)cc1NC(=O)c1cccc(NC(=O)Nc2cccc(C(=O)Nc3cc(C(=O)Nc4ccc(S(=O)(=O)O)c5cc(S(=O)(=O)O)cc(S(=O)(=O)O)c45)ccc3C)c2)c1 [Suramin, reference compound]
- Adhesion Assay (%) U87MG ([1]; 10 µM (reference)): 72.98%
- Adhesion Assay (%) HT1080 ([2]; 10 µM (reference)): 100%
- Invasion Assay Inhibition U2OS ([3]; 10 µM (reference)): -
- Invasion Assay Inhibition U87MG ([4]; U87MG, 10 µM (reference)): -
- inhibition at 10 µM ([5]; HT-1080, HT1080, 10 µM (reference)): < 50%
- EC50 ([6]; 72h, SRB): > 10 µM
- EC50 ([7]; U87MG, 72h, SRB): > 10 µM
- EC50 ([8]; HT-1080, HT1080, 72h, SRB): > 10 µM
